Data from patent US20250082633A1, “COMPOUNDS AND METHODS FOR MODULATING SPLICING” (REMIX THERAPEUTICS INC., priority 2021, published 2025).
Where two headings read alike, the source gives them in different places.

What was measured:
[1] = system: HiBiT-tagged MYB protein in K562 cells; experiment: HiBit protein abundance assay, MYB; format: cell-based, human; settings: K562 HiBiT-modified cells, 24 hours, luminescence
Procedure: (§1) Compounds described herein were used to screen for effects on quantitative protein abundance using a HiBit assay system (Promega). Quantitative protein abundance was determined by measuring the protein levels of HiBit-tagged protein targets expressed in cell culture via luminescence using the Nano-Glo HiBiT Lytic Detection System, which uses a split complementation assay format to reconstitute NanoBiT enzyme to generate a luminescent signal. A protein abundance assay was developed such that endogenous protein targets could be modified with the HiBiT peptide tag and their abundance could be assessed after compound treatment. Briefly, K562 cell lines containing a HiBiT-modification were treated with various compounds described herein (e.g., compounds of Formulas (I), (II), or (III)). After treatment for 24 hours, the protein abundance of a specific target was determined by measuring luminescence. • Promega Nano-Glo HiBiT Lytic Detection System (cat #N3030) • Corning 384-well TC-treated microplates (cat #3570) • Synthego Engineered Cells Knock-In Clones [table] Cells were maintained in IMDM with 10% FBS. Before the assay, cells were diluted with phenolphthalein-free growth media (IMDM+1% FBS media) and were seeded in a 384-well plate at a density of 10000 cells/well (for each cell line listed in Table 6). Each compound was prepared as a 10-point 3-fold serial dilution in DMSO with the top dose at a final concentration of 10 μM in the well. Unmodified K562 cells were added at the previously specified density with DMSO to serve as an assay baseline and positive control (PC) and DMSO only with the respective modified cell lines was added to the negative control (NC) columns. Final DMSO concentration was kept at or below 0.25%. Treated cell plates were placed in an incubator at 37° C. with 5% CO2 for 24 hours. After 24 hours, 25 μL of Complete HiBit Lytic reagent was added to each well at room temperature (e.g. one plate requiring 10 mL Lytic Buffer, 100 μL LgBiT Protein, 200 μL Lytic Substrate), shaken for 5 minutes at 600 RPM, then left to sit for 10 minutes for signal to stabilize before reading on a Spark Cyto plate reader (Tecan) with a 500 ms measurement time. To determine compound effects on protein abundance of each target in Table 6, the percent response for each respective cell line was calculated at each compound concentration as follows: For the normalized response at each concentration, a four-parameter logistical regression was fit to the data and the response was interpolated at the 50% value to determine a concentration for protein abundance at 50% (IC50) the untreated control.

[2] = system: HiBiT-tagged HTT protein in K562 cells; experiment: HiBit protein abundance assay, HTT; format: cell-based, human; settings: K562 HiBiT-modified cells, 24 hours, luminescence
Procedure: as §1

HTT mRNA = experiment: RT-qPCR splicing assay, HTT canonical (CJ) and alternative (AJ) junction mRNA; format: cell-based; settings: Homo sapiens; for IC50: read-out: HTT CJ IC50; for AC50: read-out: HTT AJ AC50
Outline: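 Splice-junction mRNAs (CJ, AJ) measured by TaqMan one-step RT-qPCR on cell lysates, using PPIA as reference for adherent A673 and GAPDH or GUSB for K562. Cells exposed for 24 h to 11 threefold concentrations up to 10 uM final, with DMSO at or below 0.25%.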

[3] = decrease in CJ mRNA levels, larger panel of genes, Table 3
[4] = decrease in canonical junction mRNA, A673 or K562 cells, 24 hours treatment, Table 2
[5] = increase in alternative junction mRNA, A673 or K562 cells, 24 hours treatment, Table 2

How did the IC50 [1] turn out when `Cc1cn2nc(-c3cc(F)c4nn([C@@H]5CCNC[C@H]5F)cc4c3)cc(C)c2n1` [Compound 168, 6-(7-fluoro-2-((3R,4R)-3-fluoropiperidin-4-yl)-2H-indazol-5-yl)-2,8-dimethylimidazo [1,2-b]pyridazine] was run?
Its IC50 is 100 to 1000 nM.

And the IC50 [2]?
The IC50 was < 100 nM.

And the IC50 (HTT mRNA; [3])?
Its IC50 is < 100 nM.

And the IC50 (HTT mRNA; [4])?
Its IC50 is < 100 nM.

And the AC50 (HTT mRNA; [5])?
Its AC50 is 100 to 1000 nM.

`COc1cc2nn(C3CCNCC3)cc2cc1-c1cc(C)c2nc(C)cn2n1` [Compound 159, 6-(6-methoxy-2-(piperidin-4-yl)-2H-indazol-5-yl)-2,8-dimethylimidazo[1,2-b]pyridazine] was tested. Which IC50 [1] did it give?
Its IC50 is > 10000 nM.

What about the IC50 [2] of the same compound?
Its IC50 is > 10000 nM.

What about the IC50 (HTT mRNA; [3]) of the same compound?
Its IC50 is > 10000 nM.

And the IC50 (HTT mRNA; [4])?
The IC50 was > 10000 nM.

What about the AC50 (HTT mRNA; [5]) of the same compound?
The AC50 was > 10000 nM.

`Cn1cc2cc(-c3ccc4nn(C5CCNCC5)cc4n3)c(O)c(F)c2n1` [Compound 107, 7-fluoro-2-methyl-5-[2-(4-piperidyl)pyrazolo [4,3-b]pyridin-5-yl]indazol-6-ol] was tested. Which IC50 [1] did it give?
The IC50 was 100 to 1000 nM.

And the IC50 [2]?
Its IC50 is 100 to 1000 nM.

What about the IC50 (HTT mRNA; [3]) of the same compound?
Its IC50 is 100 to 1000 nM.

What about the IC50 (HTT mRNA; [4]) of the same compound?
Its IC50 is 100 to 1000 nM.

And the AC50 (HTT mRNA; [5])?
The AC50 was 100 to 1000 nM.

How did the IC50 [1] turn out when `Cc1ncc2cc(-c3cc(F)c4nn(C5CCNCC5)cc4c3)ccc2n1` [Compound 165, 6-[7-fluoro-2-(4-piperidyl)indazol-5-yl]-2-methyl-quinazoline] was run?
The IC50 was > 10000 nM.

And the IC50 [2]?
The IC50 was > 10000 nM.

What about the IC50 (HTT mRNA; [3]) of the same compound?
Its IC50 is > 10000 nM.

What about the IC50 (HTT mRNA; [4]) of the same compound?
Its IC50 is > 10000 nM.

What about the AC50 (HTT mRNA; [5]) of the same compound?
Its AC50 is > 10000 nM.

What does the source list for `Cc1cn2nc(-c3cc(F)c4nn(C5CCN(C6CCC6)CC5)cc4c3)cc(C)c2n1` [Compound 151, 6-[2-(1-cyclobutyl-4-piperidyl)-7-fluoro-indazol-5-yl]-2,8-dimethyl-imidazo [1,2-b] pyridazine]?
IC50 [1]: < 100 nM; IC50 [2]: < 100 nM; AC50 (HTT mRNA; 24 h): < 100 nM; IC50 (HTT mRNA; 24 h): < 100 nM; IC50 (HTT mRNA): < 100 nM

What does the source list for `CCN1CCC(n2cc3cc(-c4cc(F)c5nn(C)cc5c4)cc(F)c3n2)CC1` [Compound 104, 2-(1-ethyl-4-piperidyl)-7-fluoro-5-(7-fluoro-2-methyl-indazol-5-yl)indazole]?
IC50 [1]: 100 to 1000 nM; IC50 [2]: 100 to 1000 nM; IC50 (HTT mRNA; [3]): 100 to 1000 nM; IC50 (HTT mRNA; [4]): 100 to 1000 nM; AC50 (HTT mRNA; [5]): 100 to 1000 nM

How did the IC50 [1] turn out when `Cc1cn2nc(-n3cc4cc(C5CCNCC5)cc(F)c4n3)cc(C)c2n1` [Compound 120, 6-[7-fluoro-5-(4-piperidyl)indazol-2-yl]-2,8-dimethyl-imidazo[1,2-b]pyridazine] was run?
The IC50 was 1000 to 10000 nM.

What about the IC50 [2] of the same compound?
Its IC50 is 1000 to 10000 nM.

What about the IC50 (HTT mRNA; [3]) of the same compound?
The IC50 was 1000 to 10000 nM.

And the IC50 (HTT mRNA; [4])?
Its IC50 is 1000 to 10000 nM.

What about the AC50 (HTT mRNA; [5]) of the same compound?
The AC50 was > 10000 nM.

For `Cc1nc2c(F)cc(-c3cc(F)c4nn(C5CCNCC5)cc4c3)cc2o1` [Compound 136, 4-fluoro-6-[7-fluoro-2-(4-piperidyl)indazol-5-yl]-2-methyl-1,3-benzoxazole], which IC50 [1] is on record?
The IC50 was 100 to 1000 nM.

And the IC50 [2]?
The IC50 was < 100 nM.

What about the IC50 (HTT mRNA; [3]) of the same compound?
The IC50 was < 100 nM.

And the IC50 (HTT mRNA; [4])?
The IC50 was < 100 nM.

What about the AC50 (HTT mRNA; [5]) of the same compound?
The AC50 was < 100 nM.

What does the source list for `Cc1cn2nc(-c3cc(F)c4nn(C5CCNCC5)cc4c3)cc2c(C)n1` [Compound 124, 2-[7-fluoro-2-(4-piperidyl)indazol-5-yl]-4,6-dimethyl-pyrazolo[1,5-a]pyrazine]?
IC50 [1]: 100 to 1000 nM; IC50 [2]: < 100 nM; IC50 (HTT mRNA; [3]): < 100 nM; IC50 (HTT mRNA; [4]): < 100 nM; AC50 (HTT mRNA; [5]): < 100 nM

How did the IC50 [1] turn out when `Cc1cn2nc(-c3cc(F)c4nn([C@@H]5CCNC6(CC6)C5)cc4c3)cc(C)c2n1` [Compound 173] was run?
Its IC50 is 100 to 1000 nM.

And the IC50 [2]?
Its IC50 is < 100 nM.

What about the IC50 (HTT mRNA; [3]) of the same compound?
Its IC50 is < 100 nM.

And the IC50 (HTT mRNA; [4])?
The IC50 was < 100 nM.

What about the AC50 (HTT mRNA; [5]) of the same compound?
Its AC50 is < 100 nM.

Which IC50 [1] does the source give for `Cc1cn2nc(-c3cc4cn(C5CCNCC5)nc4c(O)n3)cc(C)c2n1` [Compound 139, 5-(2,8-dimethylimidazo[1,2-b]pyridazin-6-yl)-2-(4-piperidyl)-6H-pyrazolo[3,4-c]pyridin-7-one] here?
Its IC50 is 100 to 1000 nM.

And the IC50 [2]?
The IC50 was 100 to 1000 nM.

And the IC50 (HTT mRNA; [3])?
Its IC50 is < 100 nM.

What about the IC50 (HTT mRNA; [4]) of the same compound?
Its IC50 is < 100 nM.

What about the AC50 (HTT mRNA; [5]) of the same compound?
The AC50 was < 100 nM.

What does the source list for `CCN1CCC(n2cc3cc(-c4cc(C)c5nc(C)cn5n4)cc(F)c3n2)CC12CC2` (stereo not drawn) [Compound 177, 6-[2-(4-ethyl-4-azaspiro[2.5]octan-7-yl)-7-fluoro-indazol-5-yl]-2,8-dimethyl-imidazo[1,2-b]pyridazine]?
IC50 [1]: 100 to 1000 nM; IC50 [2]: < 100 nM; IC50 (HTT mRNA; [3]): < 100 nM; IC50 (HTT mRNA; [4]): < 100 nM; AC50 (HTT mRNA; [5]): < 100 nM
